Reference: patent US20170189418A1, “PHARMACEUTICAL COMPOSITION FOR TREATING LUNG CANCER” (MA SHEN KAI RUEI CO., LTD., priority 2015, published 2017)

Experiments:
Type in all cases: cell-based
Settings in all cases: isolated compound
A549 cells = experiment: MTT survival assay, human lung cancer cell line A549
Procedure: (§1) The Anctin K(AnK) and dehydroeburicoic acid (DeHBA) separately isolated from the Extraction A of Example 1 were added into the culture media of human lung-cancer cells, A549, CH27 or H460, to test for tumor cell survival by using anti-cancer drug screen model. This survival assay was carried out with the widely known MTT (3-[4,5-dimethylthiazol-2-yl]2,5-diphenyltetrazolium bromide) assay.
(§2) Lung cancer cell lines, A549 cells are adenocarcinomic human alveolar basal epithelial cells. A549 cell line are widely used as an in vitro model for a type II pulmonary epithelial cell model for drug metabolism and as a transfection host, while CH27 is human lung squamous carcinoma cell and H460 is human lung non-small cell carcinoma cell. The human lung-cancer cells, A549, CH27 and H460 were cultivated in media containing fetal calf serum for 10 hours. The proliferated cells were washed once with PBS, then treated with 1× trypsin-EDTA and centrifuged at 2000 rpm for 10 minutes. The supernatant was discarded and the cell pellet was re-suspended in […] of fresh culture medium by gently shaking. The cells were placed in a 96-well plate.
(§3) Subsequently, the plates were read on an ELISA reader to determine the survival rates. The half maximal inhibitory concentration (IC50) values were calculated and results of ex vivo survival assay were thus obtained.
(§4) By using the same manner as the method described above, respectively human lung cancer cell line A549, CH27 and H460 was cultured. After then, the pharmaceutical compositions A-F of the present invention was applied separately, and then MTT assay for each sample was measured to assess the inhibition effectiveness of various cancer cell activity while using pharmaceutical compositions A-F of the present invention.

CH27 cells = experiment: MTT survival assay, human lung cancer cell line CH27
Procedure: as §1, §2, §3, §4

H460 cells = experiment: MTT survival assay, human lung cancer cell line H460
Procedure: as §1, §2, §3, §4

C=C(CC[C@@H](C)[C@H]1CC[C@H]2C3=C(C(=O)C[C@]12C)[C@@]1(C)CC[C@@H](O)[C@](C)(O)C1C[C@@H]3O)C(C)C(=O)O (stereo partly drawn) [Anctin K]
decreasing the survival rate: survival rate of lung cancer cell (A549 cells) | survival rate of lung cancer cell (CH27 cells) | survival rate of lung cancer cell (H460 cells)
relatively low: half-maximal inhibitory concentration (IC50) (A549 cells) | half-maximal inhibitory concentration (IC50) (CH27 cells) | half-maximal inhibitory concentration (IC50) (H460 cells)

C=C(CC[C@@H](C(=O)O)[C@H]1CC[C@@]2(C)C3=CC[C@H]4C(C)(C)[C@@H](O)CC[C@]4(C)C3=CC[C@]12C)C(C)C [dehydroeburicoic acid]
decreasing the survival rate: survival rate of lung cancer cell (A549 cells) | survival rate of lung cancer cell (CH27 cells) | survival rate of lung cancer cell (H460 cells)
relatively low: half-maximal inhibitory concentration (IC50) (A549 cells) | half-maximal inhibitory concentration (IC50) (CH27 cells) | half-maximal inhibitory concentration (IC50) (H460 cells)
